Structures can show the parent of a compound that is named as a salt. Where a SMILES comes first, the peptide text is derived from it. Bridges are numbered along the chain shown (N, C = ends). [ ]: non-standard residue; d: D form. hArg = N=C(N)NCCCC[C@H](N)C(=O)O; Mpa = O=C(O)CCS
Each compound was assayed on hDMFa myofibroblast cells.

Compound	Compound Myofibroblast Cytotoxicity Activity
COc1cccc2c1C(=O)c1c(O)c3c(c(O)c1C2=O)C[C@@](O)(C(C)=O)C[C@@H]3O[C@H]1C[C@H](N)[C@H](O)[C@H](C)O1 [Cmpd 329, Daunorubicin HCl]	+++
CCCCCCCCCC(=O)O [Cmpd 331, Decanoic acid]	+
C=C1CC[C@@H]2[C@](C)(CO)[C@H](O)CC[C@@]2(C)[C@@H]1/C=C/C1=CCOC1=O [Cmpd 334, Dehydroandrographolide]	++
C=C1CC[C@H]2C(=C)CC[C@H]3C(=C)C(=O)O[C@@H]3[C@@H]12 [Cmpd 336, Dehydrocostus Lactone]	+++++
O=C1O[C@H](CO)[C@@H](O)[C@H](O)[C@H]1O [Cmpd 338, delta-Gluconolactone]	++
C[C@H](CCC(=O)O)[C@H]1CC[C@H]2[C@@H]3CC[C@@H]4C[C@H](O)CC[C@]4(C)[C@H]3C[C@H](O)[C@]12C [Cmpd 339, Deoxycholic acid sodium salt]	+++++
Cc1cc(N)c2ccccc2[n+]1CCCCCCCCCC[n+]1c(C)cc(N)c2ccccc21 [Cmpd 340, Dequalinium Chloride]	++
CCCCCCCCCCCCC/C=C/[C@@H](O)[C@@H](N)CO [Cmpd 341, D-erythro-Sphingosine (synthetic)]	++
CNCCCN1c2ccccc2CCc2ccccc21.Cl [Cmpd 342, Desipramine hydrochloride]	++++
C#C[C@]1(O)CC[C@H]2[C@@H]3CCC4=CCCC[C@@H]4[C@H]3C(=C)C[C@@]21CC [Cmpd 344, Desogestrel]	+++
Cc1c(OCC(F)(F)F)ccnc1C[S@@+]([O-])c1nc2ccccc2[nH]1 [Cmpd 345, Dexlansoprazole]	++
NC(=O)CC[C@@H](N)C(=O)O [Cmpd 346, D-Glutamine]	++
CC(=O)Nc1c(I)c(NC(C)=O)c(I)c(C(=O)O)c1I [Cmpd 348, Diatrizoic acid]	++
COc1ccc(Cc2cnc(N)nc2N)cc1OC [Cmpd 349, Diaveridine]	++
Oc1ccc(Cl)cc1Cc1cc(Cl)ccc1O [Cmpd 353, Dichlorophen]	+++++
N#CC(c1ccc(Cl)cc1)c1c(Cl)cc(-n2ncc(=O)[nH]c2=O)cc1Cl (centres unmarked) [Cmpd 354, Diclazuril]	+++
O=C(O)Cc1ccccc1Nc1c(Cl)cccc1Cl [Cmpd 355, Diclofenac]	++
CC/C(=C(/CC)c1ccc(O)cc1)c1ccc(O)cc1 [Cmpd 358, Diethylstilbestrol]	+++
O=C(O)c1cc(-c2ccc(F)cc2F)ccc1O [Cmpd 359, Diflunisal]	++
OC(CCCN1CCCCC1)(c1ccccc1)c1ccccc1 [Cmpd 365, Diphenidol HCl]	++++

Compound	Compound Myofibroblast Cytotoxicity Activity
CC(C)N(CCC(C(N)=O)(c1ccccc1)c1ccccn1)C(C)C (centres unmarked) [Cmpd 366, Disopyramide]	++
CC/C=C\C/C=C\C/C=C\C/C=C\C/C=C\C/C=C\CCC(=O)O [Cmpd 375, Docosahexaenoic Acid]	+++
O=C(O[C@@H]1C[C@@H]2C[C@H]3C[C@H](C1)N2CC3=O)c1c[nH]c2ccccc12 [Cmpd 376, Dolasetron]	++
O=c1[nH]c2ccccc2n1CCCN1CCC(n2c(=O)[nH]c3cc(Cl)ccc32)CC1 [Cmpd 378, Domperidone]	++
CC(O)C(=O)O.CC(O)C(=O)O.CN1CCN(c2ccc3nc(-c4c(N)c5c(F)cccc5[nH]c4=O)[nH]c3c2)CC1 [Cmpd 383, Dovitinib Dilactic acid]	+++
COc1cc2nc(N3CCN(C(=O)C4COc5ccccc5O4)CC3)nc(N)c2cc1OC (centres unmarked) [Cmpd 384, Doxazosin Mesylate]	+++
CN(C)CCC=C1c2ccccc2COc2ccccc21 [Cmpd 385, Doxepin (hydrochloride)]	++
C=C1/C(=C\C=C2/CCC[C@]3(C)[C@@H]([C@H](C)/C=C/[C@H](C)C(C)C)CC[C@@H]23)C[C@@H](O)C[C@@H]1O [Cmpd 386, Doxercalciferol]	+++
C[C@H]1O[C@@H](n2cc(F)c(=O)[nH]c2=O)[C@H](O)[C@@H]1O [Cmpd 387, Doxifluridine]	++++
C[C@H]1c2cccc(O)c2C(=O)C2=C(O)[C@]3(O)C(=O)C(C(N)=O)=C(O)[C@@H](N(C)C)[C@@H]3[C@@H](O)[C@@H]21 [Cmpd 388, Doxycycline HCl]	++
CC(C)(CO)[C@H](O)C(=O)NCCCO [Cmpd 390, D-Panthenol]	++
CC(C)(CO)[C@@H](O)C(=O)NCCC(=O)[O-].[Na+] [Cmpd 391, D-Pantothenate sodium]	++
CNCC[C@H](Oc1cccc2ccccc12)c1cccs1 [Cmpd 397, Duloxetine HCl]	+++++
CCCCOc1ccc(C(=O)CCN2CCCCC2)cc1 [Cmpd 398, Dyclonine HCl]	+++
Clc1ccc(COC(Cn2ccnc2)c2ccc(Cl)cc2Cl)cc1 (centres unmarked) [Cmpd 403, Econazole nitrate]	+++
O=C([O-])CN(CCN(CC(=O)[O-])CC(=O)[O-])CC(=O)[O-].[Ca+2].[Na+].[Na+] [Cmpd 404, edetate calcium disodium]	++
CC[N+](C)(C)c1cccc(O)c1.[Cl-] [Cmpd 406, Edrophonium (chloride)]	+++
CC/C=C\C/C=C\C/C=C\C/C=C\C/C=C\CCCC(=O)O [Cmpd 408, Eicosapentaenoic Acid]	+++
CC1=NN(c2ccc(C)c(C)c2)C(=O)/C1=N\Nc1cccc(-c2cccc(C(=O)O)c2)c1O [Cmpd 410, Eltrombopag]	++
CN1CCC(COc2cnc(-c3cccc(Cn4nc(-c5cccc(C#N)c5)ccc4=O)c3)nc2)CC1 [Cmpd 413, EMD-1214063]	++++

Compound	Compound Myofibroblast Cytotoxicity Activity
Cc1cc(O)c2c(c1)C(=O)c1cc(O)cc(O)c1C2=O [Cmpd 415, Emodin (6-Methyl-1,3,8-trihydroxyanthraquinone)]	++
CCn1cc(C(=O)O)c(=O)c2cc(F)c(N3CCNCC3)nc21 [Cmpd 416, Enoxacin Sesquihydrate]	++
C=C1[C@H](CO)[C@@H](O)C[C@@H]1n1cnc2c(=O)[nH]c(N)nc21 [Cmpd 418, Entecavir Hydrate]	+++
CN1CCN(c2ccc(C(=O)Nc3n[nH]c4ccc(Cc5cc(F)cc(F)c5)cc34)c(NC3CCOCC3)c2)CC1 [Cmpd 419, Entrectinib]	+++
Cn1cc(C2=C(c3cn(C4CCN(Cc5ccccn5)CC4)c4ccccc34)C(=O)NC2=O)c2ccccc21 [Cmpd 420, Enzastaurin (LY317615)]	++++
O=S(=O)([O-])CCCS(=O)(=O)[O-].[Na+].[Na+] [Cmpd 423, Eprodisate disodium]	++
N=C(N)NCCCC[C@@H]1NC(=O)CCSSC[C@@H](C(N)=O)NC(=O)[C@@H]2CCCN2C(=O)[C@H](Cc2c[nH]c3ccccc23)NC(=O)[C@H](CC(=O)O)NC(=O)CNC1=O [Cmpd 424, Eptifibatide Acetate] ([Mpa][hArg]GDWPC-NH2; disulfide 1-7)	++
COc1ccc2[n-]c([S+]([O-])Cc3ncc(C)c(OC)c3C)nc2c1.COc1ccc2[n-]c([S+]([O-])Cc3ncc(C)c(OC)c3C)nc2c1.[Mg+2] (centres unmarked) [Cmpd 427, Esomeprazole Magnesium]	++
COc1ccc2[n-]c([S@@+]([O-])Cc3ncc(C)c(OC)c3C)nc2c1.COc1ccc2[n-]c([S@@+]([O-])Cc3ncc(C)c(OC)c3C)nc2c1.O.O.O.[Mg+2] [Cmpd 428, Esomeprazole Magnesium trihydrate]	++
C[C@]12CC[C@@H]3c4ccc(O)cc4CC[C@H]3[C@@H]1CC[C@@H]2OC(=O)CCC1CCCC1 [Cmpd 430, Estradiol Cypionate]	+++
CCCCC(=O)O[C@H]1CC[C@H]2[C@@H]3CCc4cc(O)ccc4[C@H]3CC[C@]12C [Cmpd 431, Estradiol valerate]	+++
C[C@]12CC[C@@H]3c4ccc(OS(=O)(=O)O)cc4CC[C@H]3[C@@H]1CCC2=O [Cmpd 432, Estropipate]	+++
C=C(CC)C(=O)c1ccc(OCC(=O)O)c(Cl)c1Cl [Cmpd 434, Ethacrynic Acid]	+++
CCC1(C)CC(=O)NC1=O (centres unmarked) [Cmpd 436, Ethosuximide]	++
CCOC(=O)C=Cc1ccccc1 [Cmpd 437, Ethyl Cinnamate]	++
C#C[C@]1(OC(C)=O)CC[C@H]2[C@@H]3CCC4=C[C@@H](OC(C)=O)CC[C@@H]4[C@H]3CC[C@@]21C [Cmpd 439, Ethynodiol diacetate]	++
CCOC(=O)/C=C(C)/C=C/C=C(C)/C=C/c1c(C)cc(OC)c(C)c1C [Cmpd 442, Etretinate]	+++
Cc1cc(-c2ccc(/N=N/c3ccc4c(S(=O)(=O)[O-])cc(S(=O)(=O)[O-])c(N)c4c3O)c(C)c2)ccc1/N=N/c1ccc2c(S(=O)(=O)[O-])cc(S(=O)(=O)[O-])c(N)c2c1O.[Na+].[Na+].[Na+].[Na+] [Cmpd 445, Evans Blue tetrasodium salt]	++
CO[C@H]1C[C@@H]2CC[C@@H](C)[C@@](O)(O2)C(=O)C(=O)N2CCCC[C@H]2C(=O)O[C@H]([C@H](C)C[C@@H]2CC[C@@H](OCCO)[C@H](OC)C2)CC(=O)[C@H](C)/C=C(\C)[C@@H](O)[C@@H](OC)C(=O)[C@H](C)C[C@H](C)/C=C/C=C/C=C/1C [Cmpd 446, Everolimus (RAD001)]	+++++

— US20260102359A1, “COMBINATION TREATMENT OF DERMAL AND TRANSDERMAL FIBROTIC DISEASES, DISORDERS AND ASSOCIATED PAIN AND INFLAMMATION” (ERESINA, LLC, priority 2022, published 2026)
